According to patent publication US20260184807A1, “Methods for Treating Rheumatoid Arthritis Using a Syndecan-1 Inhibitor or Syntenin-1 Inhibitor” (The United States Government as represented by the …, priority 2022, published 2026):

Legend:
MΦs = conditions: classical and Syntenin-1-differentiated MΦs; cited from earlier work
RA FLS [1] = conditions: cited from earlier work
RA FLS [2] = conditions: IL-6/IFNγ signaling; cited from earlier work
RA MΦs = test: Syntenin-1 stimulation and inhibition in RA MΦs (qRT-PCR, ELISA); format: cell-based, human; conditions: Syntenin-1 1000 ng/mL, 6 h or 24 h vs PBS, FIGS. 2B-2E
Description: FIGS. 2A-K show ligation of Syntenin-1 to SDC-1 expands RA MΦ inflammatory profile independent of IL 5R or PDZ1 function. […] Transcription of IRFs (FIG. 2B) and the inflammatory monokines (FIG. 2C) was assessed by qRT-PCR (n=3-10), and protein levels of IL-6 (FIG. 2D) or TNFα (FIG. 2E) were determined in the conditioned media by ELISA (n=10). […] Data are presented as mean±SEM: significant differences were determined by the Mann-Whitney test, two-way-ANOVA, or one-way ANOVA. *p<0.05, **p<0.01, ***p<0.001, ****p<0.0001. ANOVA, analysis of variance.
(B, C) RA MΦs were treated with PBS (ctrl) or Syntenin-1 (1000 ng/mL) for 6 hours and transcription levels of HIF1α (n=10) (FIG. 3B). GLUT1, RAPTOR, HK2, PFK2, PDK1, PKM2 (FIG. 3C) were quantified by qRT-PCR (n=6). […] FIGS. 3H, 3I) after 24 hours impact of treatment was determined on CD14+CD86+ GLUT1+ frequency by flow cytometry (n=4-5). […] Data are presented as mean±SEM; significant differences were determined by Mann-Whitney test, Student's t-test, two-way-ANOVA, or one-way ANOVA. *p<0.05, **p<0.01, ***p<0.001, ****p<0.0001. ANOVA, analysis of variance.
Quantitative Real-Time PCR. […] Transcription to cDNA and subsequent quantitative real-time PCR analysis was performed using the High-Capacity cDNA Reverse Transcription Kit (Applied Biosystems) and TaqMan Gene Expression Master Mix (Applied Biosystems). […]

Molecule: O=CC[C@@H](O)[C@H](O)[C@H](O)CO [2-DG, 2-deoxy-D-glucose]
- metabolic activity expanded via GLUT1, LDHA, and lactate (MΦs): impaired
- GLUT1 and HK2 transcriptional upregulation (RA FLS [1]; LPS/IFNγ reprogrammed RA FLS): suppressed
- upregulation of IRF1/5/7 along with IL-6, IL-8, and CCL2 (RA FLS [1]; RA FLS differentiated by LPS/IFNγ): reversed
- citrate accumulation (RA FLS [1]; RA FLS reconfigured by LPS/IFNγ): resolved

Molecule: C[C@@H]1CCN(C(=O)CC#N)C[C@@H]1N(C)c1ncnc2[nH]ccc12 [Tofacitinib]
- RA FLS migration (RA FLS [2]): impaired

B1: Syntenin-1: Syntenin-1 protein (1000 ng/ml, NKMAX Co.) used as stimulus (protein, UniProt O00560 2-298, looked up)
Syntenin-1: SLYPSLEDLKVDKVIQAQTAFSANPANPAILSEASAPIPHDGNLYPRLYPELSQYMGLSLNEEEIRANVAVVSGAPLQGQLVARPSSINYMVAPVTGNDVGIRRAEIKQGIREVILCKDQDGKIGLRLKSIDNGIFVQLVQANSPASLVGLRFGDQVLQINGENCAGWSSDKAHKVLKQAFGEKITMTIRDRPFERTITMHKDSTGHVGFIFKNGKITSIVKDSSAARNGLLTEHNICEINGQNVIGLKDSQIADILSTSGTVVTITIMPAFIFEHIIKRMAPSIMKSLMDHTIPEV
- expansion of monokines IL-1, TNF-α, IL-6, IL-8 and CCL2 (RA MΦs): > 7 fold
